Source: patent US8084459B2, “Substituted quinazolinones for treating neurological conditions” (Prana Biotechnology Ltd, priority 2004, dated 2011)

Tests used:
[1] = target: T1, Aβ 1-42 (Homo sapiens, UniProt P05067); assay: Assay 1 Fluorometric H2O2 assay (peroxide); format: biochemical; conditions: inhibition of H2O2 generation by Aβ with copper
T1 construct: The reaction solutions contained Aβ 1-42 at concentrations
Description: Assay 1. Fluorometric H2O2 Assay
A fluorometric assay was used to test the ability of a test compound to inhibit hydrogen peroxide generation by Aβ in the presence of copper based on dichlorofluoroscein diacetate (DCF; Molecular Probes, Eugene Oreg.). The DCF solution (5 mM) in 100% dimethyl sulphoxide (previously purged with argon for 1 hr at 20° C.) was deacetylated in the presence of 0.025M NaOH for 30 min and neutralised at pH 7.4 to a final concentration of 1 mM. Horseradish peroxidase (HRP) stock solution was prepared to 1 μM at pH 7.4. The reactions were carried out in PBS, pH 7.4 in a 96 well plate (total volume=250 μl/well). The reaction solutions contained Aβ 1-42 at concentrations in the range of 50 nM to 1 μM, copper-glycine chelate (Cu-Gly), was prepared by adding CuCl2 to glycine in the ratio of 1:6 and added to the Aβ in the proportion 2Cu-Gly:1Aβ), reducing agents including dopamine (5 μM) or ascorbic acid, deacetylated DCF 100 μM, and HRP, 0.1 μM. 1-10 μM EDTA or another chelator may also be present as a control for free copper, but was not required for the assay to function. The reaction mixture was incubated at 37 C for 60 min. Catalase (4000 units/ml) and H2O2 (1-2.5 μM) standards in PBS pH 7.4 may be included as positive controls. Fluorescence was recorded using a plate reader with excitation and emission filters at […] respectively. H2O2 concentration may be established by comparing fluorescence with the H2O2 standards. Inhibition of Aβ H2O2 production was assayed by including a given concentration of test compound(s) in the test wells.

[2] = tested on: Aβ1-42 toxicity in neuronal cortical cells; assay: Assay 3(c) Aβ neurotoxicity and neuroprotection (MTS); format: cell-based, mouse; conditions: 20 uM Aβ1-42, cortical neurons, 4 days
Description: (§1) Primary Cortical Neuronal Cultures
(§2) Cortical cultures were prepared as previously described (White et al., 1998). Embryonic day 14 BL6Jx129sv mouse cortices were removed, dissected free of meninges and dissociated in 0.025% (wt/vol) trypsin. Dissociated cells were plated in 48 well culture plates at a density of 2×10^6 cells/mL in MEM with 25% (vol/vol) FCS and 5% (vol/vol) HS and incubated at 37° C., 2 hrs. Media was then replaced with Neurobasal media (Invitrogen Life Technologies) and B27 supplements (Invitrogen Life Technologies). Cultures were maintained at 37° C. in 5% CO2. Prior to experimentation, the culture medium was replaced with Neurobasal media and B27 minus antioxidants (Invitrogen Life Technologies).
(c) Assay for Aβ Neurotoxicity and Aβ Neuroprotection
Neuronal cortical cells were cultured for five days as per Assay 2. On day six the neurobasal (NB) media (Invitrogen Life Technologies) and B27 supplement (Invitrogen Life Technologies) were replaced with NB media and B27 supplement (no antioxidants). On day six, test compounds were individually added to the neuronal cell cultures:
(§3) The test compounds were dissolved in 100% DMSO to a concentration of 2.5 mM (10 mM if excess compound was weighed out per vial—then diluted to 2.5 mM). 2.5 mM stock solution was serially diluted 1 in 10 to give working solutions of 250 uM, 25 uM, 2.5 uM.
Aβ was initially dissolved in 20 mM NaOH to a concentration of 1 mM and sonicated for 5 minutes. The peptide was then diluted in H2O and 10×PBS to a final concentration of 200 uM Aβ in 1× PBS. The peptide was again sonicated for 5 minutes and then spun at 14000 rpm for 5 min and transferred to a fresh tube.
as §3, with “in 10 [in NB media and B27 (no antioxidants)] to give” for “in 10 to give”, “2.5 uM. Test compounds were not added directly to cells, instead they were added to a 48 well ‘Drug Plate’ as comprised below:” for “2.5 uM.”
(§4) Preparation of “Drug Plate”:
Well 1: 515 ul NB+B27 (no antioxidant)*+24 ul 25 uM test compound+60 ul Aβ diluent**
Well 2: 515 ul NB+B27 (no antioxidant)+24 ul 250 uM test compound+60 ul Aβ diluent
Well 3: 515 ul NB+B27 (no antioxidant)+24 ul test compound diluent***+60 ul Aβ1-42
Well 4: 515 ul NB+B27 (no antioxidant)+24 ul 2.5 uM test compound+60 ul Aβ1-42
Well 5: 515 ul NB+B27 (no antioxidant)+24 ul 25 uM test compound+60 ul Aβ1-42
Well 6: 515 ul NB+B27 (no antioxidant)+24 ul 250 uM test compound+60 ul Aβ1-42 diluent
Well 7: 515 ul NB+B27 (no antioxidant)+24 ul test compound diluent+60 ul Aβ1-42 diluent
Well 8: 600 ul NB+B27 (no antioxidant)
The Drug Plate was incubated at 37° C. for 15 mins. 200 ul of each well was added in triplicate to the corresponding cell plate. The cell plate was incubated at 37 C, for 4 days.
* NB media+B27 (no antioxidants)
** Aβ diluent 2 mM NaOH, 1×PBS
*** PBT diluent 10% DMSO in NB+B27 (no antioxidant)
On the 4th day after treating the cells the assay is completed by adding MTS to the cells.

[3] = Assay 16 mouse plasma levels of test compounds; format: in vivo; conditions: highest level found in mice (Up to); oral dosing 30 mg/kg described for PB 1075-1077
Description: Assay 16. Determination of Mouse Plasma Levels of Test Compounds PB 1075
(§5) Oral administration of PB 1075 at 30 mg/kg, as a suspension in Na-Carboxymethyl Cellulose (CMC) was administered by oral gavage to four mice. Two mice were sacrificed 30 minutes after administration and two mice were sacrificed 60 minutes after administration. Blood was obtained by cardiac puncture and plasma separated by centrifugation.
The concentration of PB 1075 was determined by LC/MS using the triple quadrupole instrument. The mobile phase consisted of an acetonitrile (ACN)/water gradient (containing 0.05% Formic acid) and the column was a Phenomenex Lunea 5 um C8 (50×2 mm) column.
The supplied acute toxicity mouse plasma samples were directly injected following a protein precipitation with ACN. The analytical method in plasma was linear in the range of 10 to 10,000 ng/ml (R^2=0.994). Recovery of PB 1075 from plasma was ˜100%.
as §5, with “1076” for “1075”
The concentration of PB 1076 was determined by LC/MS using the triple quadrupole instrument. The mobile phase consisted of an acetonitrile (ACN)/water gradient (containing 0.05% Formic acid) and the column was a Phenomenex Luna 5 μM C8 (50×2 mm) column.
The mouse plasma samples were directly injected following a protein precipitation with ACN. The analytical method in plasma was linear in the range of 500 to 10,000 ng/ml (R^2=0.999). Recovery of PB 1076 from plasma was ˜85%.
as §5, with “1077” for “1075”
The concentration of PB 1077 was determined by LC/MS using the triple quadrupole instrument. The mobile phase consisted of an acetonitrile (ACN)/water gradient (containing 0.05% Formic acid) and the column was a Phenomenex Luna 5 μM C8 (50×2 mm) column.
The mouse plasma samples were directly injected following a protein precipitation with ACN. The analytical method in plasma was linear in the range of 5 to 5,000 ng/ml (R^2=0.999). Recovery of PB 1077 from plasma was ˜92%.

[4] = Assay 3(d) test compound cytotoxicity (MTS); format: cell-based; conditions: BL6Jx129sv, mouse, primary cortical neuronal cultures, cortical neurons; for viability at 4 days, 1 µM: read-out: Assay 3(d) Cytotoxicity (% viable at 1 uM); for viability at 4 days, 10 µM: read-out: Assay 3(d) Cytotoxicity (% viable at 10 uM)
Description: as §1, §2
(a) MTS Assay for Cell Viability
Cell viability is determined using the MTS assay. Culture medium is replaced with fresh neurobasal medium plus B27 supplements minus antioxidants. 1/10 volume MTS solution (Cell Titre 96 Aqueous One, Promega Corporation) and incubated at 37° C., 2 hrs. 200 microlitre aliquots are measured with a spectrophotometer at 560 nm.
(d) Assay for Test Compound Cytoxicity
Neuronal cortical cells were cultured for five days as per Assay 2 in NB media and B27 supplement.
On day six the test compounds were added to the neuronal cell cultures in NB media and B27 supplement minus antioxidants.
as §3, with “Test” for “The test”, “uM. Test compounds were not added directly to cells, instead they were added to a 48 well ‘Drug Plate’ as comprised below:” for “uM.”
as §4
• Well 1: 576 ul NB+B27 (no antioxidant)*+24 ul 2.5 uM test compound • Well 2: 576 ul NB+B27 (no antioxidant)+24 ul 25 uM test compound • Well 3: 576 ul NB+B27 (no antioxidant)+24 ul 250 uM test compound • Well 4: 576 ul NB+B27 (no antioxidant)+24 ul 2.5 uM test compound • Well 5: 576 ul NB+B27 (no antioxidant)+24 ul 25 uM test compound • Well 6: 576 ul NB+B27 (no antioxidant)+24 ul 250 uM test compound • Well 7: 576 ul NB+B27 (no antioxidant)+24 ul test compound diluent** • Well 8: 600 ul NB+B27 (no antioxidant)
The Drug Plate was incubated at 37° C. for 15 mins. 200 ul of each well was added in triplicate to the corresponding cell plate. The cell plate was incubated at 37° C., for 4 days, (2 compounds are tested on each plate of cells).
* NB media and B27 (no antioxidants),
** PBT diluent 10% DMSO in NB+B27 (no antioxidants)
On completion of the assay, 1/10 volume MTS was added per well of plate (ie 25 ul/250 ul). The plates were incubated at 37° C. for 2 hrs, and then absorbance was read at 560 nm.

T1 sequence (P05067 672-713 limits assumed): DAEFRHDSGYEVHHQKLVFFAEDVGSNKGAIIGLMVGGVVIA

Row | SMILES | IC50 [1] [nM] | Assay 16 Mice plasma concentration [3] | Assay 3(c) Neuroprotection (% inhibition of Abeta toxicity) [2] [%] | viability at 4 days, 1 µM [4] [%] | viability at 4 days, 10 µM [4] [%]
1 | CN1CCN(n2cnc3c(O)c(Cl)cc(Cl)c3c2=O)CC1 [Compound 1081] | 550 | Up to 207 ng/mL | 7 |  | 
2 | O=c1c2c(Cl)cc(Cl)c(O)c2ncn1CC1CCNCC1 [Compound 1094] |  |  | 1 | 97 | 96
3 | O=c1c2c(Cl)cc(Cl)c(O)c2ncn1N1CCOCC1 [Compound 1080] | 440 |  | 15 |  | 70

Second part, led by results:

Row | IC50 [1] [nM] | Assay 16 Mice plasma concentration [3] | SMILES | Assay 3(c) Neuroprotection (% inhibition of Abeta toxicity) [2] [%] | viability at 4 days, 1 µM [4] [%] | viability at 4 days, 10 µM [4] [%]
4 | 460 |  | O=c1c2c(Cl)cc(Cl)c(O)c2ncn1CCc1ccccn1 [Compound 1091] | −8 | 100 | 92
5 | 780 |  | Cc1ccc(-n2cnc3c(O)c(Cl)cc(Cl)c3c2=O)nc1 [Compound 1089] | 13 | 96 | 83
6 | 840 |  | CCn1nccc1-n1cnc2c(O)c(Cl)cc(Cl)c2c1=O [Compound 1088] | 3 |  | 94
7 | 1520 |  | O=c1c2c(Cl)cc(Cl)c(O)c2ncn1-c1ccc(Cl)cn1 [Compound 1087] | 11 | 94 | 58
